Publication PMC3725577 (Bioorganic & medicinal chemistry letters, 2011)
“Also recorded” adds a separate entry of the source.

Experiments:
HeLa37 cells = test: Cell viability; format: cell-based; settings: concentrations as high as 100 µg/mL
HIV-1 NL4-3 = test: Single round HIV infectivity in HeLa37 cells; format: cell-based

Compound | cytotoxicity (in words) (HeLa37 cells) | anti-HIV activity (in words) (HIV-1 NL4-3)
CC1(C)CCc2c(O)c(C(=O)CC(=O)c3ccccc3)c(O)c(C=O)c2O1 [Compound 12, 6-(1,3-Dioxo-3-phenylpropyl)-2,2-dimethyl-8-formylchroman-5,7-diol] | highest cytotoxicity; also recorded: significant cytotoxicity at the higher concentrations tested | good activity
CC(=O)c1c(O)c2c(c(C(C)=O)c1O)OC(C)(C)CC2 [Compound 6, 6,8-diacetyl-2,2-dimethylchroman-5,7-diol] |  | least active
